In brackets after ≈: the same amount, converted by molar mass.
What was measured:
[1] = tested on: E. coli (K12 (ATCC 25404), R2 (ATCC 39544), R3 (ATCC 11775), R4 (ATCC 39543)), A. baumannii (ATCC 17978), P. aeruginosa (ATCC 15442), E. cloacae (ATCC 49141) …; assay: Minimum inhibitory concentration (MIC), microtiter plate method with resazurin; format: cell-based, S. aureus; conditions: Gram-negative and Gram-positive bacteria
Description: The reference bacterial strains of E.coli (K12 ATCC 25404, R2 ATCC 39544, R3 ATCC 11775, and R4 ATCC 39543) and Staphylococcus aureus strain (ATCC 23235), as well as Acinetobacter baumannii (ATCC 17978), Pseudomonas aeruginosa (ATCC 15442), and Enterobacter cloacae (ATCC 49141) were obtained from LGC Standards U.K. and were used according to the recommendation of ISO 11133 [30]. These strains were used to test the antibacterial activity of the analysed compounds by determining the minimum inhibitory concentration (MIC) and minimum bactericidal concentration (MBC), as described in [8, 9, 26, 27, 28, 29, 30, 31]. The results are shown in Figures S33 and S34 in the Supplementary Materials.
MIC and MBC were estimated using a microtiter plate method with sterile 48- or 96-well plates, which is precisely described in [9]. Briefly, MIC and MBC, defined as the lowest concentration of a bacteriostatic agent, were determined. Briefly, 50 μL of the analysed compounds and the appropriate bacterial strains were added to the first row of the plate. Then, 25 μL of sterile Tryptone Soya Broth (TSB) medium was added to the other wells, and serial dilutions were performed. Subsequently, 200 μL of inoculated TSB medium containing resazurin (0.02 mg/mL) as an indicator was added to all wells. TSB medium was inoculated with 10^6 colony-forming units (CFU)/mL (approximately 0.5 McFarland units) of the bacterial strains. The plates were incubated at 30 °C for 24 h. Changes in colour from blue to pink or yellowish with turbidity were considered positive, and the lowest concentration at which no visible change in colour occurred was recorded as the MIC, according to Kowalczyk et al.. Each experiment (both MIC and MBC) was repeated at least three times.

[2] = tested on: S. aureus; conditions: against S. aureus; cited from earlier work
[3] = MTT cytotoxicity assay; conditions: mouse
Description: (§1) The cytotoxic effects of the tested peptidomimetics 1–16 on BALB/c3T3 mouse fibroblast cells were determined using the MTT assay after 24 h of incubation at five different concentrations (1, 2, 4, 6, and 8 µg/mL). The MTT test is based on the ability of the mitochondrial dehydrogenase enzymes to convert an orange, water-soluble tetrazolium salt (3-(4,5-dimethylthiazol-2-yl)-2,5-diphenyltetrazolium bromide) into an insoluble formazan, which is a dark blue product of the above reaction. After dissolving the formazan crystals in DMSO or isopropanol, a coloured solution was formed, the intensity of which is measured spectrophotometrically within the wavelength range of 492–570 nm. The amount of coloured reduced MTT is proportional to the oxidative activity of the cell’s mitochondria and, under strictly defined experimental conditions, to the number of metabolically active (living) cells in the population. The MTT test can also be used to determine cell viability in populations of cells that no longer divide but are metabolically active.

[4] = tested on: BALB/c3T3 mouse embryonic fibroblast cell line; assay: MTT cytotoxicity assay
Description: as §1

[5] = tested on: S. aureus strain (ATCC 23235); format: cell-based, Staphylococcus aureus; conditions: S. aureus (ATCC 23235)

Q: Which melting point does the source give for `COc1ccc(CNC(=O)C(OC(=O)Cc2ccccc2)c2c(OC(C)=O)ccc3c(C)cc(=O)oc23)cc1` (stereo not drawn) [Compound 2, 1-(7-Acetoxy-4-methyl-2-oxo-2H-chromen-8-yl)-2-((4-methoxybenzyl)amino)-2-oxoethyl 2-phenylacetate] here?
A: 66 to 68 °C

Q: What about the “spectrum of antibacterial activity” value [1] of the same compound?
A: broad-spectrum activity

Q: Which melting point does the source give for `CC(=O)Oc1ccc2c(C(F)(F)F)cc(=O)oc2c1C(OC(=O)Cc1ccccc1)C(=O)NCc1ccccc1` (stereo not drawn) here?
A: 54 to 57 °C

Q: Which IC50 [2] does the source give for `Cc1cc(=O)oc2c(C)c(OCc3ccc(-c4ccccc4)cc3)ccc12` [Compound B] here?
A: 3 µM

Q: For `COc1ccc(CNC(=O)C(OC(=O)Cc2ccccc2)c2c(OC(C)=O)ccc3ccc(=O)oc23)cc1` (stereo not drawn) [Compound 4, 1-(7-Acetoxy-2-oxo-2H-chromen-8-yl)-2-((4-methoxybenzyl)amino)-2-oxoethyl 2-phenylacetate], which melting point is on record?
A: 57 to 59 °C

Q: What about the “spectrum of antibacterial activity” value [1] of the same compound?
A: broad-spectrum activity

Q: For `Cc1cc(=O)oc2cc(OCc3ccc(-c4ccccc4)cc3)ccc12` [A], which IC50 [2] is on record?
A: 9.7 µM

Q: With `CC(=O)Oc1ccccc1C(OC(=O)Cc1ccccc1)C(=O)NCc1ccccc1` (stereo not drawn) [Compound 15, 1-(2-Acetoxyphenyl)-2-(benzylamino)-2-oxoethyl 2-phenylacetate] as the compound, how does the viability at 24 h, 2 µg/mL [3] read?
A: 66.5%

Q: Which “spectrum of antibacterial activity” value [1] does the source give for “1-(7-Acetoxy-4-methyl-2-oxo-2H-chromen-8-yl)-2-((4-fluorobenzyl)amino)-2-oxoethyl 2-phenylacetate [Compound 1]” here?
A: broad-spectrum activity

Q: What about the IC50 for fibroblasts ([4]; after 24 h of incubation) of the same compound?
A: 4.26 µg/mL

Q: Which results are given for `CC(=O)Oc1ccc2c(C)cc(=O)oc2c1C(OC(=O)Cc1ccccc1)C(=O)NCc1ccc(F)cc1` (stereo not drawn) [Compound 6, 1-(7-Acetoxy-4-methyl-2-oxo-2H-chromen-8-yl)-2-((4-fluorobenzyl)amino)-2-oxoethyl 2-phenylacetate]?
A: melting point: 56 to 59 °C; viability at 24 h, 2 µg/mL [3]: 87%

Q: For `CC(=O)Oc1ccc2ccc(=O)oc2c1C(OC(=O)Cc1ccccc1)C(=O)NCc1ccc(F)cc1` (stereo not drawn), which melting point is on record?
A: 61 to 63 °C

Q: For `COc1ccc(CNC(=O)C(OC(=O)Cc2ccccc2)c2ccccc2OC(C)=O)cc1` (stereo not drawn) [Compound 14, 1-(2-Acetoxyphenyl)-2-((4-methoxybenzyl)amino)-2-oxoethyl 2-phenylacetate], which IC50 ([4]; Mus musculus, BALB/c3T3, 24 h, read-out: IC50 for fibroblasts) is on record?
A: 7.22 µg/mL (≈ 16.1 µM)

Q: For `CC(=O)Oc1ccc2c(C(F)(F)F)cc(=O)oc2c1C(OC(=O)Cc1ccccc1)C(=O)NCc1ccc(F)cc1` (stereo not drawn), which melting point is on record?
A: 51 to 55 °C

Q: Which melting point does the source give for `COc1ccc(CNC(=O)C(OC(=O)Cc2ccccc2)c2c(OC(C)=O)ccc3c(C(F)(F)F)cc(=O)oc23)cc1` (stereo not drawn) [Compound 9, 1-(7-Acetoxy-2-oxo-4-(trifluoromethyl)-2H-chromen-8-yl)-2-((4-methoxybenzyl)amino)-2-oxoethyl 2-phenylacetate] here?
A: 54 to 58 °C

Q: What about the “spectrum of antibacterial activity” value [1] of the same compound?
A: broad-spectrum activity

Q: And the “activity against S. aureus” value [5]?
A: very potent activity

Q: What does the source list for `CC(=O)Oc1ccc2ccc(=O)oc2c1C(OC(=O)Cc1ccccc1)C(=O)NCc1ccccc1` (stereo not drawn) [Compound 3, 1-(7-Acetoxy-2-oxo-2H-chromen-8-yl)-2-(benzylamino)-2-oxoethyl 2-phenylacetate]?
A: melting point: 64 to 66 °C; spectrum of antibacterial activity [1]: broad-spectrum activity

Q: For `Cc1onc(-c2ccccc2Cl)c1C(=O)N[C@@H]1C(=O)N2[C@@H]1SC(C)(C)[C@@H]2C(=O)O` [cloxacillin, reference compound], which viability ([3]; BALB/c3T3 mouse embryonic fibroblast cells) is on record?
A: 85 to 89.9%

Q: For `COc1ccc(CNC(=O)C(OC(=O)Cc2ccccc2)c2ccc(Br)cc2OC(C)=O)cc1` (stereo not drawn), which melting point is on record?
A: 107 to 108 °C

Q: For `CC(=O)Oc1cc(Br)ccc1C(OC(=O)Cc1ccccc1)C(=O)NCc1ccccc1` (stereo not drawn), which melting point is on record?
A: 122 to 124 °C

Q: With `COc1ccc(CNC(=O)C(O)c2ccc(Br)cc2O)cc1` (stereo not drawn) as the compound, how does the melting point read?
A: 96 to 100 °C
